Patent US20190233884A1 (University of Southern California, priority 2016, published 2019)

System: patients with refractory metastatic colorectal cancer (mCRC)
Assay: PFS, OS and disease control in the control cohort of refractory mCRC patients receiving regorafenib (n=52, Italy), by baseline characteristics and SNP genotype
Assay type: in vivo, human
Conditions: control cohort
Description: All patients underwent the treatment in salvage-line setting.
(§1) Patients in the control group received 160 mg regorafenib (Bayer, Leverkusen, Germany) once daily from day 1 to 21 every 4 weeks. Doses were adjusted based on haematological and non-haematological adverse events at the treating physician's discretion in accordance with the manufacturer's recommendations. The analyses were approved by the University of Southern California (USC) Institutional Review Board of Medical Sciences and conducted at the USC/Norris Comprehensive Cancer Center in accordance with the Declaration of Helsinki and Good Clinical Practice Guidelines.
(§2) Genomic DNA was extracted from peripheral whole blood in patients of all cohorts using the QIAmp Kit (Qiagen, Valencia, Calif., USA) according to the manufacturer's protocol (www.qiagen.com). The candidate SNPs were genotyped using PCR-based direct DNA sequence analysis by ABI 3100A Capillary Genetic Analyzer and Sequencing Scanner v1.0 (Applied Biosystems). Amplification of extracted DNA was carried out using both forward and reverse primers for each gene polymorphism as shown in Table 1. […] The investigators analyzing SNPs were blinded to the clinical data of the study patients.
The primary endpoint in this study was progression-free survival (PFS), and the secondary endpoints were overall survival (OS) and disease control rate (DCR). PFS was calculated from the date of starting treatment to the first observation of disease progression or death from any cause. If a patient had no disease progression or death, PFS was censored at the date of last follow up. OS was calculated from the date of starting treatment until the date of death from any cause or the date of the last follow-up, at which point OS was censored. The disease control rate (DCR) was defined as the proportion of patients who achieved a stable disease (SD) or […] according to RECISTv1.1. Chi-square test was used to examine the difference in baseline patient characteristics among the three cohorts. Allelic distribution of all SNPs by ethnicity for deviation from Hardy-Weinberg equilibrium and the allelic frequencies of SNPs were tested using the Chi-square tests with one degree of freedom. The associations between candidate SNPs and disease control, and toxicities were examined using contingency tables and Fisher's exact test. The associations of SNPs with PFS and OS were analysed using Kaplan-Meier curves and the log-rank test. Because the true mode of inheritance of candidate SNPs was not established yet, a codominant or dominant genetic model if appropriate was considered.
All patients underwent the treatment in salvage-line setting. […] In all patients, adverse events were graded according to the Common Terminology Criteria for Adverse Events, version 4.0.
as §1, with “events at treating physician's” for “events at the treating physician's”
as §2, with “tested” for “genotyped”, “Biosystems).” for “Biosystems). Amplification of extracted DNA was carried out using both forward and reverse primers for each gene polymorphism as shown in Table 1.”, “data.” for “data of the study patients.”
The primary endpoint in this study was progression-free survival (PFS), and the secondary endpoints were overall survival (OS) and disease control rate (DCR). […]

[1] = Sex Female vs Male (Ref.), univariate
[2] = Tumor site Left vs Right (Ref.), univariate
[3] = XRCC3 rs861539 A/A vs G/G (Ref.), multivariable
[4] = XRCC3 rs861539 A/A vs G/G (Ref.), univariate
[5] = XRCC3 rs861539 Any A vs G/G (Ref.), multivariable
[6] = XRCC3 rs861539 Any A vs G/G (Ref.), univariate
[7] = XRCC3 rs861539 G/A vs G/G (Ref.), multivariable
[8] = XRCC3 rs861539 G/A vs G/G (Ref.), univariate
[9] = MATE1 rs2289669 G/A and A/A combined
[10] = MATE1 rs2289669 G/A and A/A combined vs G/G

CNC(=O)c1cc(Oc2ccc(NC(=O)Nc3ccc(Cl)c(C(F)(F)F)c3)c(F)c2)ccn1 [regorafenib]
Median OS (Sex Female): 5.5 months
Median PFS (Sex Female): 2.0 months
HR OS [1]: 1.18
HR PFS [1]: 1.02
Median OS (Sex Male): 5.4 months
Median PFS (Sex Male): 1.8 months
Median OS (Tumor site Left): 7.2 months
Median PFS (Tumor site Left): 2.2 months
HR OS [2]: 0.82
HR PFS [2]: 0.80
Median OS (Tumor site Right): 3.9 months
Median PFS (Tumor site Right): 1.8 months
Disease Control CR/PR/SD, patients n (%) (XRCC3 rs861539 A/A): 3 (43%)
Median OS (95% CI) (XRCC3 rs861539 A/A): 5.4 (2.3, 9.1) months
Median PFS (95% CI) (XRCC3 rs861539 A/A): 2.7 (1.7, 4.3) months
PD, patients n (%) (XRCC3 rs861539 A/A): 4 (57%)
HR OS (95% CI) [3]: 0.54 (0.21, 1.40)
HR PFS (95% CI) [3]: 0.62 (0.23, 1.65)
HR OS (95% CI) [4]: 0.34 (0.04, 2.95)
HR PFS (95% CI) [4]: 0.83 (0.34, 2.06)
Disease Control CR/PR/SD, patients n (%) (XRCC3 rs861539 Any A): 13 (38%)
Median OS (95% CI) (XRCC3 rs861539 Any A): 5.9 (3.8, 8.0) months
Median PFS (95% CI) (XRCC3 rs861539 Any A): 2.0 (1.8, 3.1) months
PD, patients n (%) (XRCC3 rs861539 Any A): 21 (62%)
HR OS (95% CI) [5]: 0.71 (0.38, 1.31)
HR PFS (95% CI) [5]: 0.85 (0.44, 1.63)
HR OS (95% CI) [6]: 0.72 (0.22, 2.39)
HR PFS (95% CI) [6]: 0.83 (0.45, 1.53)
Disease Control CR/PR/SD, patients n (%) (XRCC3 rs861539 G/A): 10 (37%)
Median OS (95% CI) (XRCC3 rs861539 G/A): 6.8 (3.6, 8.7) months
Median PFS (95% CI) (XRCC3 rs861539 G/A): 1.9 (1.8, 3.1) months
PD, patients n (%) (XRCC3 rs861539 G/A): 17 (63%)
HR OS (95% CI) [7]: 0.76 (0.40, 1.44)
HR PFS (95% CI) [7]: 0.92 (0.47, 1.79)
HR OS (95% CI) [8]: 0.86 (0.25, 2.96)
HR PFS (95% CI) [8]: 0.83 (0.44, 1.56)
Disease Control CR/PR/SD, patients n (%) (XRCC3 rs861539 G/G): 4 (27%)
Median OS (95% CI) (XRCC3 rs861539 G/G): 4.1 (1.7, 6.0) months
Median PFS (95% CI) (XRCC3 rs861539 G/G): 1.7 (1.0, 2.2) months
PD, patients n (%) (XRCC3 rs861539 G/G): 11 (73%)
Disease Control Rate PD (MATE1 rs2289669 A/A): 5 (50%)
Disease Control Rate SD (MATE1 rs2289669 A/A): 3 (50%)
Disease Control Rate SD (MATE1 rs2289669 G/A): 7 (27%)
PD, patients n (%) (MATE1 rs2289669 G/A): 19 (73%)
Overall Survival Median, months (95% CI) [9]: 5.3 (3.7, 8.0) months
Progression-free Survival Median, months (95% CI) [9]: 1.8 (1.7, 2.8) months
Overall Survival HR (95% CI) multivariate [10]: 0.99 (0.52, 1.91)
Overall Survival HR (95% CI) univariate [10]: 0.85 (0.50, 1.57)
Progression-free Survival HR (95% CI) multivariate [10]: 0.86 (0.43, 1.70)
Progression-free Survival HR (95% CI) univariate [10]: 0.65 (0.48, 1.52)
Disease Control Rate PD (MATE1 rs2289669 G/G): 10 (59%)
Disease Control Rate SD (MATE1 rs2289669 G/G): 7 (41%)
Overall Survival Median, months (95% CI) (MATE1 rs2289669 G/G): 5.7 (2.2, 7.8) months
Progression-free Survival Median, months (95% CI) (MATE1 rs2289669 G/G): 2.1 (1.5, 3.1) months
Overall Survival HR (95% CI) univariate (OCT2 rs316000): 0.95 (0.50, 1.83)
Progression-free Survival HR (95% CI) univariate (OCT2 rs316000): 0.95 (0.50, 1.83)
Disease Control Rate PD (OCT2 rs316019 A/A): 1 (100%)
Disease Control Rate SD (OCT2 rs316019 A/A): 0
Disease Control Rate PD (OCT2 rs316019 C/A): 6 (86%)
